How the values were obtained:
HIV [1] = test: Inactivation of HIV from blood of sero-positive patient, reverse transcriptase activity after culture with H9 cells; type: cell-based, Human Immunodeficiency Virus (HIV)
Procedure: In order to show the effectiveness of the compounds of the present invention in the inactivation of HIV, blood was obtained from an HIV sero-positive patient and treated with hypericin and pseudohypericin at various concentrations for 1 hour at 37° C. and incubated with uninfected H9 cells in culture. Thereafter, reverse transcriptase enzymatic activity was determined as disclosed in U.S. patent application Ser. Nos. 084,008 and 172,064 filed Aug. 10, 1987 and Mar. 23, 1988, respectively.
(§1) In FIG. 1, open squares represent hypericin-treated and pluses represent pseudohypericin treated HIV. […] Inactivation of the reverse transcriptase activity of the virions was not a result of a direct inhibition of reverse transcriptase activity per se, as incubation of either compound directly with purified reverse transcriptase from either avian myeloblastosis virus or murine leukemia virus had no effect on enzyme activity. Furthermore, aliquots of HIV derived from these H9 cell cultures lost the ability to replicate in culture when exposed to as little as 0.77 micrograms/ml of hypericin.

[2] = tested on: purified reverse transcriptase from avian myeloblastosis virus; test: Direct incubation with purified reverse transcriptase; type: biochemical
Procedure: as §1

[3] = molecular target: purified reverse transcriptase from murine leukemia virus (Moloney murine leukemia virus isolate Shinnick, UniProt P03355); test: as above; type: biochemical
Procedure: as §1

[4] = Toxicity of hypericin administered to mice; type: in vivo
Procedure: In general, up to 100 mg and preferably between 1 mg and about 10 mg of the antiviral compounds may be employed to completely eliminate the infectivity properties of human retroviruses such as HIV in one unit of whole blood. Intravenous transfusion or administration of blood containing this level of hypericin for example should pose no serious toxicity or tolerance threat to human recipients of such transfused blood. […] This correlates with a dose of approximately 25 mg i.v. in man, or twenty times the dose that would be received from a transfusion of 1 unit of whole blood containing 2.5 micrograms/ml hypericin. In addition, i.e. administration of 1.2 mg of hypericin in phosphate buffered saline (PBS) containing 10% ethanol to a mouse was not lethal. (Naturally, it is preferred to use the minimum amount of the antiviral compounds that is effective to terminate the infectivity of the target virus in a given biological fluid. The minimum effective amount required for abolishing infectivity of a particular viral species suspected to be present in a biological fluid can be easily determined through the exercise of routine experimentation.)

Radiation Leukemia Virus = test: Inhibition of virus budding from infected AQR cells, reverse transcriptase assay; type: cell-based, Radiation Leukemia Virus in AQR (murine leukemia) cells; conditions: 1 hour incubation, supernatant after 24 hours; read-out: concentration completely inhibiting virus budding
Procedure: AQR (murine leukemia) cells producing Radiation Leukemia Virus (prepared as described in Meruelo, D., J. Exp. Med. 149: 898-909, 1979; and Bach, R. G. et al., J. Exp. Med. 160: 270-285, 1984) were incubated for 1 hour with various concentrations of synthetic hypericin (micrograms/ml shown in FIG. 3). The cells were then washed four times with phosphate buffer saline and incubated in fresh culture medium for 24 or 48 hours. Supernatants were then collected, pelleted (at 1000×g) for 15 minutes to remove whole cells and then repelleted at 100,000×g for 1 hour to collect virus particles. The second pellet was used for a reverse transcriptase assay, conducted as described in U.S. application Ser. No. 084,008 (Aug. 10, 1987) and 172,064 (Mar. 23, 1988).
The results of the reverse transcriptase assay are plotted in FIG. 3. […] Thus, the minimum incubation period that would destroy the ability of HIV-infected cells to participate in propagation of the HIV infection is likely to be much smaller than the 24 hours employed as the minimum waiting period in this assay.

HIV [5] = test: Incubation time of free HIV virus with hypericin needed to inhibit infectivity; type: cell-based, Human Immunodeficiency Virus (HIV)
HIV-1 = test: Syncytia assay, H9 cells infected with IIIb isolate of HIV co-cultured with Supt-1 cells; type: cell-based; conditions: 24 hours
Procedure: (§2) In order to assess the effects of Hy and Ps on the ability of HIV to form syncytia, the following experiments were performed. For the analysis of HIV-1, an entry syncytia assay was performed by co-culturing H9 cells (described in Popovic, M. et al. Science 224: 497-500, 1984) infected with the IIIb isolate of HIV with uninfected Supt-1 cells (Walker, B. D. et al. Proc. Nat. Acad. Sci. (USA) 84: 8120-8124, 1987) as the target cell. HIV-2 was tested using HUT78 cells (obtained from the National Institute of Health by reference to Depository Catalog, Reagent Program, Bethesda, Md.) infected with the ROD-2 isolate of HIV-2 co-cultured with uninfected H9 target cells. The infected cells were plated in 96 well plates (10^4 cells per well in RPM1 1640 medium with 10% fetal calf serum) and incubated with or without dilutions of Ps or Hy for 30 minutes at 37° C. 1×10^5 target cells were then added per well and the number of syncytia were quantitatively and qualitatively determined after 24 hours.

HIV-2 = test: Syncytia assay, HUT78 cells infected with ROD-2 isolate co-cultured with H9 cells; type: cell-based; conditions: 24 hours
Procedure: as §2

HIV-1 env = test: Syncytia assay, cell line expressing only envelope proteins of HIV-1 IIIb with Supt-1 cells; type: cell-based; conditions: for syncytia score (number 0-4, size S/M/L): 24 hours
Procedure: as §2
Also tested in a syncytia assay was a constructed cell line expressing only the envelope proteins of HIV-1 type IIIb isolate (Walker, B. D. et al., supra). These cells, designated HIV-1 env in Table 6, were treated with the indicated concentrations of Ps or Hy and incubated with uninfected Supt-1 target cells as above.

Cc1cc(O)c2c(=O)c3c(O)cc(O)c4c5c(O)cc(O)c6c(=O)c7c(O)cc(C)c8c1c2c(c34)c(c78)c65 [hypericin]
concentration giving complete inactivation of HIV (no reverse transcriptase detected) (HIV [1]; 1 hour at 37° C., H9 cells): 2.5 micrograms/ml
IC100 (HIV [1]; Human immunodeficiency virus 1, H9, 1 h, read-out: concentration giving complete inactivation of HIV (no reverse transcriptase detected), 1 hour at 37° C., H9 cells): > 2.5 µg/mL
effect on enzyme activity of purified reverse transcriptase [2]: no effect
effect on enzyme activity of purified reverse transcriptase [3]: no effect
corresponding dose in man ([4]; i.v., extrapolated from 100 micrograms per mouse): approximately 25 mg
toxic side effects ([4]; mice, intravenous, 100 micrograms per mouse): not exhibited any toxic side effects
lethality ([4]; mouse, 1.2 mg in PBS containing 10% ethanol): not lethal
IC100 (Radiation Leukemia Virus): 10 µg/mL
inhibition of virus infectivity (HIV [5]; 10 and 5 minutes incubation): complete
inhibition of virus infectivity (HIV [5]; only the time to add compound and centrifuge): significant inhibition
syncytia score (number 0-4, size S/M/L) (HIV-1; 7 nanograms): 4 L
syncytia score (number 0-4, size S/M/L) (HIV-1; 14 nanograms): 4 L
syncytia score (number 0-4, size S/M/L) (HIV-1; 28 nanograms): 3 L
syncytia score (number 0-4, size S/M/L) (HIV-1; 56 nanograms): 0
syncytia score (number 0-4, size S/M/L) (HIV-1; 112 nanograms): 0
syncytia score (number 0-4, size S/M/L) (HIV-1; 225 nanograms): 0
syncytia score (number 0-4, size S/M/L) (HIV-1; 450 nanograms): 0
syncytia score (number 0-4, size S/M/L) (HIV-1; 900 nanograms): 0
syncytia score (number 0-4, size S/M/L) (HIV-1; 1800 nanograms): 0
syncytia score (number 0-4, size S/M/L) (HIV-2; 7 nanograms): 4 L
syncytia score (number 0-4, size S/M/L) (HIV-2; 14 nanograms): 4 L
syncytia score (number 0-4, size S/M/L) (HIV-2; 28 nanograms): 4 L
syncytia score (number 0-4, size S/M/L) (HIV-2; 56 nanograms): 3 M
syncytia score (number 0-4, size S/M/L) (HIV-2; 112 nanograms): 1S
syncytia score (number 0-4, size S/M/L) (HIV-2; 225 nanograms): 0
syncytia score (number 0-4, size S/M/L) (HIV-2; 450 nanograms): 0
syncytia score (number 0-4, size S/M/L) (HIV-2; 900 nanograms): 0
syncytia score (number 0-4, size S/M/L) (HIV-2; 1800 nanograms): 0
syncytia score (number 0-4, size S/M/L) (HIV-1 env; 7 nanograms): 4 L
syncytia score (number 0-4, size S/M/L) (HIV-1 env; 14 nanograms): 4 L
syncytia score (number 0-4, size S/M/L) (HIV-1 env; 28 nanograms): 4 L
syncytia score (number 0-4, size S/M/L) (HIV-1 env; 56 nanograms): 4 L
syncytia score (number 0-4, size S/M/L) (HIV-1 env; 112 nanograms): 3 M
syncytia score (number 0-4, size S/M/L) (HIV-1 env; 225 nanograms): 0
syncytia score (number 0-4, size S/M/L) (HIV-1 env; 450 nanograms): 0
syncytia score (number 0-4, size S/M/L) (HIV-1 env; 900 nanograms): 0
syncytia score (number 0-4, size S/M/L) (HIV-1 env; 1800 nanograms): 0
inhibition of the viral entry process (comparison) (HIV-1 env; HIV-1 env cells and live virus assays): more effective than pseudohypericin
